The record followed here is patent US20150164899A1, “INHIBITION OF ADAPTOR ASSOCIATED KINASE 1 FOR THE TREATMENT OF PAIN” (priority 2012, published 2015).

In assay [1] the target is T1, AAK1 (full-length human protein) (Homo sapiens, UniProt Q2M2I8).
T1 construct: NP_055726.2
The experiment in a line: P81 filter plate assay. The class given is biochemical. Particulars: pyrazolo[1,5-a]pyrimidine-based inhibitors. Here is the method:
Compounds were serially diluted into a Labcyte LDV plate (Labcyte, cat# LP-0200) using a Mutiprobe (PerkinElmer) and Biomek FX (Beckman Coulter) so that the highest compound concentration was at 96 μM. Compounds were then pinged (75 nL per well) into a Greiner 384-well reaction plate (Greiner, #781076) using an ECHO 550 Liquid Handler (Labcyte). A total of 12 μl reaction buffer (IMAP buffer containing Tween and DTT, from Molecular Devices) was then added to each well of columns 1 and 13 for the negative controls and 12 μl of 2×AAK1 (0.2 nM full-length human protein, NCBI accession no. NP_055726.2) was added to the remaining wells. Enzyme was then pre-incubated with compound for 10 minutes at RT. Reactions were initiated upon Minitrak (PerkinElmer) addition of 12 μl substrate mix containing 2× Mu2 (0.2 μM, full length human protein), 2× cold ATP (2 μM), and 1.3 μCi of hot ^33P-ATP. Reactions proceeded for one hour at RT. Meanwhile, Millipore 384-well P81 filter plates (Millipore, catalog # MZPHN0W10) were placed on a plate washer (Zoom Z W, from Titertek) and pre-wet with 50 μl 1% phosphoric acid. Kinase reactions were then stopped upon addition of 24 μl of 2% phosphoric acid to each well and the Minitrak was then used to transfer 40 μl from each well into the pre-wet Millipore 384-well P81 filter plates. Reaction mixtures were incubated for 10 minutes at RT in the P81 plates, followed by washing five times with 100 μl/well of 1% phosphoric acid using the Zoom filter washer. The bottom of each filter plate was sealed followed by addition of 20 μl Microscint 40 to each well, sealing the top of the plates with Flashplate cover, and then waiting one hour until reading on the TopCount (PerkinElmer).

Assay [2] deals with T2, AAK1 (full length human) in transfected HEK293F cells (Homo sapiens, UniProt Q2M2I8).
T2 construct: expressed in transfected cells; host or cells: HEK293F
T2 sequence (Q2M2I8 1-863 isoform Q2M2I8-2): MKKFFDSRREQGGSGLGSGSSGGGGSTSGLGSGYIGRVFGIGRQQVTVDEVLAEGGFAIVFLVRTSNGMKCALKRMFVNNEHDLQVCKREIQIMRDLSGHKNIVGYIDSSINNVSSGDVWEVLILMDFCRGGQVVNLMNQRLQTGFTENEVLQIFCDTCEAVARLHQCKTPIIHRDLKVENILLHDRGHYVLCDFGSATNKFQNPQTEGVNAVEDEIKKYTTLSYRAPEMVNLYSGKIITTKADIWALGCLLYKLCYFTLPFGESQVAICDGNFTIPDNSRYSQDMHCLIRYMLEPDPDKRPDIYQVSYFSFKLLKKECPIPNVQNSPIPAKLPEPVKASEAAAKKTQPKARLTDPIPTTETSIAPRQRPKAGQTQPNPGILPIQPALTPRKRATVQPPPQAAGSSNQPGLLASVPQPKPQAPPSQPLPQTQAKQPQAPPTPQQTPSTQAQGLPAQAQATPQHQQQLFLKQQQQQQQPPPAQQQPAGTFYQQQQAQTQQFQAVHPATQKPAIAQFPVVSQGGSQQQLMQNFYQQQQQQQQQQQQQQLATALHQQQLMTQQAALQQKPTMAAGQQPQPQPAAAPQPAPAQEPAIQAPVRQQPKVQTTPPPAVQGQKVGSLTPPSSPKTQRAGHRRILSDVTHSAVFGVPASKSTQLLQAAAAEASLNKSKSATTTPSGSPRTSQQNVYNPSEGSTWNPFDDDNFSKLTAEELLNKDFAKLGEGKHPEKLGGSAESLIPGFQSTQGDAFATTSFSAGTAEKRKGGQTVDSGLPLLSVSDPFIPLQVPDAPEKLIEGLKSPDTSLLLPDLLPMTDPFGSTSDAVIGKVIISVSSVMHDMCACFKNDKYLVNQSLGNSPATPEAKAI
Description: HEK281 cell-based assay (phospho-mu2 Western blot). The note with it: HEK281 cell-based assay; pyrazolo[1,5-a]pyrimidine-based inhibitors; read-out: CBA IC50. The method, then:
HEK293F cells were cultured in media containing DMEM (Gibco, cat. #11965), 10% FBS (SAFC Biosciences, cat. #12103C), 1×GPS (glutamine, penicillin and streptomycin). On day one, cells were plated on a 10 cm dish so that they are ˜80% confluent at time of transfection. Roughly 12 million cells were in a 10 cm dish at time of transfection. On day two, each dish was transfected with 48 ug DNA and 144 ul Lipofectamine 2000 (Invitrogen, cat.#11668-019). The DNA was comprised of a mixture (per 10 cm dish) containing 3 ug AAK1/HA/pIRES (full length human, NCBI accession no. NP_055726.2), 45 μg Flag/AP2MI/pcDNA (full length human), and 1.5 ml OPTI-MEM. The Lipofectamine 2000 is made up of a mixture (per 10 cm dish) containing 144 μl Lipofectamine 2000 and 1.5 ml OPTI-MEM. Each mixture was transferred to individual 15 ml tubes and incubated at RT for 5 minutes, and then the two mixes were combined and incubated at RT for 20 minutes. Growth media was then aspirated from each 10 cm plate and replaced with 10 ml of DMEM+10% FBS (no GPS). Finally, 3 ml DNA/Lipofectamine mix was added to each 10 cm dish and mix gently followed by incubate of plate overnight at 37° C. and 5% CO2.
On day three, compounds were diluted in 100% DMSO at 1000× final concentration, followed by 3-fold serial dilutions for a total of 5 concentrations tested. Four compounds were tested per 10 cm dish. One ul of each compound dilution was then pipetted into a deep-well, 96-well plate, followed by addition of 500 μl DMEM+0.5% FBS into each well for a 2× final concentration of each compound. Cells were resuspended in a 10 cm dish by simple pipetting (HEK293 cells come off the plate that easy at this point) and then transferred to a 50 ml conical tube and pelleted by centrifugation at 1000 rpm for 5 min. Cell pellets were then resuspended in 2.75 ml DMEM+0.5% FBS per 10 cm dish and 100 μl of cell suspension transferred into each well of 96-well TC plate. Finally, 100 μl of 2× compound diluted in DMEM+0.5% FBS was then added into wells containing cell suspension for a 1× final concentration. Plates were then incubated at 37° C. and 5% CO2 for 3 hours followed by transferring of cell suspensions from each well into 12-tube PCR strips. The PCR strips were spun in a tip rack at 1000 rpm for 5 minutes to pellet cells and media was then removed by pipetting without disturbing the cell pellet.
To prepare for Western Blot analysis, cell pellets were resuspend in 40 ul 1×LDS-PAGE sample buffer (Invitrogen, cat.# NP0008)+2× Halt phophatase and protease inhibitor cocktail (Thermo Scientific, cat.#1861284), followed by sonicating each with microtip sonicator set at 5 for 8-10 seconds. Five ul of 10× NuPage Sample Reducing Agent (with […]) was to each sample followed by heat denaturing at 70 C. for 10 min on PCR machine. A total of 10 μl per sample was loaded into each lane of a 4-20% Tris-Glycine Criterion 26-well gel (Biorad, cat.#345-0034) for the phospho-mu2 blot and 10 μl per lane in a 4-12% Bis-Tris (+MES buffer) NuPAGE 26-well gel (Invitrogen, cat.# WG1403BX10) for the mu2 blot. For controls, 2 ng of phospho-mu2 or 20 ng mu2/Flag proteins were loaded in the last well of each gel. After SDS-PAGE, samples on each gel were transferred to PVDF membrane using an iBlot and membranes were blocked for one hour in TBST+5% milk, followed by wash 3× for 5-10 min with TBST. Criterion gels were probed with rabbit anti-phospho-mu2 (1:5000; a rabbit polyclonal antibody produced by New England Peptide and affinity purified at Lexicon) in TBST+5% BSA, whereas, NuPAGE gels were probed with mouse anti-Flag (1:500; Sigma, cat.# F1804) in TBST+5% milk, and these primary antibodies were incubated overnight at 4° C. on a rocker.

In assay [3] the test system is formalin-induced paw flinching. The experiment in a line: formalin paw test. The note with it: 60 mpk ip, mice. The class given is in vivo. The method, then:
See example 5.4.1, above. The same test was used to confirm that the administration of an AAK1 inhibitor can also affect pain response.
Mice were tested for nociception with Automatic Nociception Analyzers (purchased from the Ozaki lab at University of California, San Diego). A metal band was placed around the left hind paw of each mouse with superglue 30 minutes prior to testing. After the 30-minute acclimation period, 20 μl of 5% formalin was subcutaneously injected in the dorsal surface of the left hind paw. Mice were individually housed in cylindrical chambers for 45 minutes. Fresh 5% formalin solution was prepared by diluting formaldehyde (Formalde-fresh 20%, Fisher Scientific, Fair Lawn, N.J.) with distilled water. Investigatory compounds were administered 30 minutes prior to formalin injection.
A computer software recorded flinches per minute, total flinches for Phase I (acute phase=first 8 minutes), and total flinches for Phase II (tonic phase between 20-40 minutes) through an electromagnetic field. See Yaksh T L, Ozaki G, McCumber D, Rathbun M, Svensson C, Malkmus S, Yaksh M C. An automated flinch detecting system for use in the formalin nociceptive bioassay. J Appl Physiol., 2001; 90:2386-402.
Various compounds of the invention were tested at different doses. Gabapentin and pregabalin were used as positive controls. Results are shown below in Table 2, wherein “*” means an effect equal to or greater than 50 percent of that of gabapentin at 200 mpk, “**” means an effect equal to or greater than 100 percent of that of gabapentin at 200 mpk, “sc” means subcutaneous administration, “ip” means in intraperitoneal administration, and “po” means oral administration.

T1 sequence (Q2M2I8 1-863 isoform Q2M2I8-2): as above

The term IC50 denotes the concentration that gives 50% inhibition. Take `COc1ncccc1-c1cnn2ccc(N3CCN(C(=O)NC(C)(C)C)CC3)nc12`: the half-maximal inhibitory concentration (IC50) in assay [1] is at most 10 nM; in assay [2], at most 100 nM.

As to `COc1ncccc1-c1cnn2ccc(N3CCN(C(=O)N(C)C(C)(C)C)CC3)nc12`, the IC50 was at most 10 nM in assay [1] and at most 100 nM in assay [2].

On to `COc1ncccc1-c1cnn2ccc(N3CCN(C(=O)N(C)C(C)C)CC3)nc12`, for which the half-inhibitory concentration (IC50) in assay [1] was at most 10 nM; in assay [2], at most 100 nM.

On to `COc1ncccc1-c1cnn2ccc(N3CCN(C(=O)NC(C)C)CC3)nc12`, for which the half-inhibitory concentration (IC50) in assay [1] and in assay [2] was at most 10 nM throughout.

With `COc1ncccc1-c1cnn2ccc(N3CCN(C(=O)N4CCCC4)CC3)nc12`, the results for the IC50 in assay [1] and in assay [2] were at most 10 nM and at most 100 nM, respectively.

For `COc1ccccc1-c1cnn2ccc(NC[C@@H]3CCCN3C(=O)CC(C)(C)C)nc12`, the half-maximal inhibitory concentration (IC50) in assay [1] and in assay [2] was at most 10 nM each time.

As to `CCCC(=O)N1CCC[C@H]1CNc1ccn2ncc(-c3ccccc3OC)c2n1`, the half-inhibitory concentration (IC50) was at most 10 nM in assay [1] and at most 100 nM in assay [2].

`COc1cnccc1-c1cnn2ccc(NC[C@@H]3CCC(=O)N3CCC(C)(C)C)nc12`: the IC50 is at most 10 nM in assay [1] and at most 100 nM in assay [2].

For the compound `CC(C)(C)NC(=O)N1CCC[C@H]1CNc1ccn2ncc(Br)c2n1`, the concentration for half-maximal inhibition (IC50) in assay [1] and in assay [2] was at most 10 nM throughout.

Regarding `COc1ccccc1-c1cnn2ccc(NC[C@@H]3CCCN3C(=O)CC(F)(F)F)nc12`, the half-inhibitory concentration (IC50) in assay [1] is at most 10 nM; in assay [2], at most 100 nM.

As for `O=C(CC(F)(F)F)N1CCC[C@H]1CNc1ccn2ncc(-c3ccncc3)c2n1`, the results for the concentration for half-maximal inhibition (IC50) in assay [1] and in assay [2] were at most 10 nM and at most 100 nM, respectively.

On to `COc1ncccc1-c1cnn2ccc(N3CC[C@H](N(C)C(=O)CC(F)(F)F)C3)nc12`, for which the IC50 in assay [1] and in assay [2] was at most 10 nM throughout.

On to `CN(C(=O)CC(F)(F)F)[C@H]1CCN(c2ccn3ncc(-c4ccccn4)c3n2)C1`, for which the 50% inhibitory concentration (IC50) in assay [1] and in assay [2] was at most 10 nM each time.

For the compound `CC(C)(C)CCN1C(=O)CC[C@H]1CNc1ccn2ncc(Br)c2n1`, the IC50 is at most 10 nM in assay [1] and at most 100 nM in assay [2].

Regarding `CCCC(=O)N(C)[C@H]1CCN(c2ccn3ncc(-c4ccccc4OC)c3n2)C1`, the IC50 was at most 10 nM in assay [1] and at most 1000 nM in assay [2].

In the case of `CCCC(=O)N(C)[C@H]1CCN(c2ccn3ncc(-c4cccnc4OC)c3n2)C1`, the values for the IC50 in assay [1] and in assay [2] were at most 10 nM and at most 1000 nM, respectively.

With `COc1ccccc1-c1cnn2ccc(NC[C@@H]3CCCN3C(=O)OC(C)C)nc12`, the IC50 in assay [1] and in assay [2] was at most 10 nM each time.

On to `COC(=O)N1CCC[C@H]1CNc1ccn2ncc(-c3ccccc3OC)c2n1`, for which the half-maximal inhibitory concentration (IC50) is at most 10 nM in assay [1] and at most 100 nM in assay [2].

For the compound `COCc1ccccc1-c1cnn2ccc(NC[C@@H]3CCCN3C(=O)OC(C)(C)C)nc12`, the values for the 50% inhibitory concentration (IC50) in assay [1] and in assay [2] were at most 10 nM and at most 100 nM, respectively.

Take `CC(C)(C)OC(=O)N1CCC[C@H]1CNc1ccn2ncc(-c3ccccc3O)c2n1`: the half-inhibitory concentration (IC50) is at most 10 nM in assay [1] and at most 100 nM in assay [2].

Regarding `CC(C)Oc1ccccc1-c1cnn2ccc(NC[C@@H]3CCCN3C(=O)OC(C)(C)C)nc12`, the IC50 in assay [1] and in assay [2] was at most 10 nM throughout.

With `COc1ccc(-c2cnn3ccc(NC[C@@H]4CCCN4C(=O)OC(C)(C)C)nc23)cc1`, the IC50 in assay [1] and in assay [2] was at most 10 nM in each case.

For the compound `COc1ccccc1-c1cnn2ccc(N3CC[C@H](N(C)C(=O)OC(C)(C)C)C3)nc12`, the IC50 in assay [1] is at most 10 nM; in assay [2], at most 100 nM.

For the compound `COc1cc(-c2cnn3ccc(N4CCN(C(=O)OC(C)C)CC4)nc23)c(OC)nn1`, the half-inhibitory concentration (IC50) in assay [1] and in assay [2] was at most 10 nM in each case.

As to `COc1ccncc1-c1cnn2ccc(N3CCN(C(=O)OC(C)C)CC3)nc12`, the concentration for half-maximal inhibition (IC50) is at most 10 nM in assay [1] and at most 100 nM in assay [2].

As for `COc1ccc(-c2cnn3ccc(N4CCN(C(=O)OC(C)C)CC4)nc23)nc1`, the IC50 in assay [1] and in assay [2] was at most 10 nM throughout.

With `COc1cncc(-c2cnn3ccc(N4CCN(C(=O)OC(C)C)CC4)nc23)c1`, the IC50 in assay [1] was at most 10 nM; in assay [2], at most 100 nM.

As for `COc1ccc(-c2cnn3ccc(N4CCN(C(=O)OC(C)C)CC4)nc23)cn1`, the half-maximal inhibitory concentration (IC50) in assay [1] was at most 10 nM; in assay [2], at most 1000 nM.

As for `CC(C)OC(=O)N1CCN(c2ccn3ncc(-c4ccccn4)c3n2)CC1`, the values for the IC50 in assay [1] and in assay [2] were at most 10 nM and at most 100 nM, respectively.

For `CC(C)OC(=O)N1CCN(c2ccn3ncc(-c4ccncc4)c3n2)CC1`, the half-inhibitory concentration (IC50) in assay [1] was at most 10 nM; in assay [2] it was at most 100 nM.

As for `COC(=O)N1CCN(c2ccn3ncc(-c4cccnc4OC)c3n2)CC1`, the concentration for half-maximal inhibition (IC50) in assay [1] and in assay [2] was at most 100 nM throughout.

Turning to `CCCCNc1ccc2ncc(-c3ccc(-c4nnn[nH]4)cc3)n2n1` [3-(4-(1H-tetrazol-5-yl)phenyl)-N-butylimidazo[1,2-b]pyridazin-6-amine], the Effect result in assay [3] was “** (an effect equal to or greater than 100% of that of gabapentin at 200 mpk)”.
